Data set [1] relates to Staphylococcus aureus. Description: Antibacterial activity against methicillin-sensitive Staphylococcus aureus by broth microdilution technique. The class given is functional.
Data set [2] in a line: Drug level in serum of Staphylococcus aureus infected rabbit arthritis model at 100 mg/kg, iv administered daily. To be noted: in vivo. Type of data set: ADME, organism-based, Oryctolagus cuniculus. Details: dose 100 mg/kg, route intravenous.
Data set [3] concerns Staphylococcus aureus. Put plainly: Antibacterial activity against ciprofloxacin and methicillin-resistant Staphylococcus aureus.
A short description of data set [4]: Cmax in Staphylococcus aureus infected rabbit arthritis model at 45 mg/kg, po. Type of data set: ADME, organism-based, Oryctolagus cuniculus. Details: dose 45 mg/kg, route oral. To be noted: in vivo.
A short description of data set [5]: AUC (0 to 24 hrs) in Staphylococcus aureus infected rabbit arthritis model at 45 mg/kg, po. The class given is ADME, organism-based, Oryctolagus cuniculus. To be noted: in vivo. Details: time < 24 hr, dose 45 mg/kg, route oral.
In data set [6] the test system is Staphylococcus aureus. Description: microbe, parasite or virus in culture.
Description: Antibacterial activity against methicillin-resistant Staphylococcus aureus by broth microdilution technique
Data set [7] is described as follows: AUC (0 to 24 hrs) in human serum at 400 mg, po administered as single dose. The class given is ADME, organism-based. Details: time < 24 hr, dose 400 mg, route oral.
Data set [8] in a line: Cmax in human serum at 400 mg, po administered as single dose. Type of data set: ADME, organism-based. The settings on record: read-out: tCmax.
The nature of data set [9]: Cmax in human serum at 400 mg, po administered as single dose after 1 hr. Type of data set: ADME, organism-based. Details: dose 400 mg, route oral.
A short description of data set [10]: Drug level in serum of Staphylococcus aureus infected rabbit arthritis model at 50 mg/kg, im administered thrice a day. The class given is ADME, organism-based, Oryctolagus cuniculus. To be noted: in vivo. Set-up: dose 50 mg/kg, route intramuscular.
Data set [11] deals with Staphylococcus aureus. Description: Antibacterial activity against methicillin-sensitive Staphylococcus aureus infected rabbit arthritis model assessed as change in bacterial load per gram of synovial fluid at 50 mg/kg, im administered thrice a day after 7 days by broth microdilution technique. The class given is functional. The settings on record: route intramuscular. For orientation: Dilution methods test growth across graded concentrations, often in twofold steps.

In brackets after ≈: the same amount, converted by molar mass.

The Cmax is the maximum level reached in the sampled fluid or tissue. The AUC(0-t) is the area under the concentration-time curve up to a stated or last time point. The low end stands for low exposure, the high end for high exposure.

In data set [1], `CN[C@H](CC(C)C)C(=O)N[C@H]1C(=O)N[C@@H](CC(N)=O)C(=O)N[C@H]2C(=O)N[C@H]3C(=O)N[C@H](C(=O)N[C@H](C(=O)O)c4cc(O)cc(O)c4-c4cc3ccc4O)[C@H](O)c3ccc(c(Cl)c3)Oc3cc2cc(c3O[C@@H]2O[C@H](CO)[C@@H](O)[C@H](O)[C@H]2O[C@H]2C[C@](C)(N)[C@H](O)[C@H](C)O2)Oc2ccc(cc2Cl)[C@H]1O` [VANCOMYCIN] registered an MIC of 0.032 µg/mL (≈ 0.0221 µM). The molecule further yielded a Drug uptake in [2] of 26.3 mg/L.
For the molecule `COc1c(N2C[C@@H]3CCCN[C@@H]3C2)c(F)cc2c(=O)c(C(=O)O)cn(C3CC3)c12` [MOXIFLOXACIN], the MIC in data set [3] was determined as 0.25 µg/mL (≈ 0.623 µM); in data set [6] it was 1 µg/mL (≈ 2.49 µM); in data set [1], 0.032 µg/mL (≈ 0.0797 µM). For the same molecule, the Cmax in data set [4] amounted to 2850 ng/mL; in [9], 2500 ng/mL. In addition, the AUC(0-t) at 24 h in data set [5] came to 37500 ng·h/mL; in [7], 35000 ng·h/mL. For the same molecule, the Tmax in data set [8] was determined as 1 h.
In the case of `Cc1onc(-c2ccccc2Cl)c1C(=O)N[C@@H]1C(=O)N2[C@@H]1SC(C)(C)[C@@H]2C(=O)O` [CLOXACILLIN], the Drug uptake in data set [10] is on record as 0.8 mg/L. Moreover, the MIC in [6] was 4 µg/mL (≈ 9.18 µM); in [1] it was 0.5 µg/mL (≈ 1.15 µM). Moreover, the deltalog10CFU in [11] was found to be 4.6.

The record behind these values is ChEMBL document CHEMBL1143423, “In vivo efficacy of moxifloxacin compared with cloxacillin and vancomycin in a Staphylococcus aureus rabbit arthritis experimental model” (Antimicrob Agents Chemother, 2007).
